Like-named read-outs stand apart in the source and are kept apart here.
Tests used:
isolated rat hepatocytes = assay: Glycogenolysis inhibition in isolated rat hepatocytes; assay type: cell-based; settings: mean ± S.D. of three, NI means no inhibition
Excerpt: To evaluate the effects of all compounds in cells, the glycogenolysis assays were established in both rat and human liver cells based on the published method. […] The inhibitory activities of the derivatives of PSN-357 (e.g. 25–28) were also explored. It is not surprising that the derivatives still retained micromolar inhibitory activities. Introduction of steric bulks to the hydroxyl group (e.g. 33, 40, 42, 48) led to a complete loss of activity. Data analysis indicated no clear SAR for the substitutents in the cell-based assays.
The inhibition of hepatic glycogenolysis was monitored by the measurement of liver glycogen, which was done quantitatively by the anthrone reagent (Sigma) colorimetric method based on the published method. Isolated rat hepatocytes or HepG2 cells (Sigma) were treated with the test compound or DMSO solvent (final concentration, 0.10%), followed by 60-min incubation with 0.3 nM glucagon (GGN). Assays were terminated by centrifugation, and cells were digested with 30% KOH followed by glycogen determination. The IC50 values were estimated by fitting the inhibition data to a dose-dependent curve using a logistic derivative equation.

[1] = Biodistribution and pharmacokinetics in plasma and liver after intravenous administration in mice; assay type: in vivo; settings: 5 mg/kg intravenous; for AUC(0-t) / Cmax: iv
Description: Based on the results of the potency and in vitro stability studies, conjugate 6 was selected for in vivo pharmacokinetic analysis following a single intravenous injection of 5 mg/kg in male C57 BL/6. Doses of PSN-357 intravenous were used as standard regimens for comparison.
Male C57 BL/6 mice (18–20 g, 5–6 weeks old) were provided by the Laboratory Animal Center of Academy of Military Medical Science of People’s Liberation Army, and were reared in standard rodent cages in animal house of Chengde Medical University, under the condition of a constant temperature of 24 °C (±2 °C) and a 12 h light/dark cycle. PSN-357 and conjugate 6 were injected through the caudal vein. For each sampling time point, three mice were treated with a single dose of either PSN-357 or conjugate 6 at 5 mg/kg in 10% DMSO/saline solutions. Blood and liver samples were taken at 0.0833, 0.25, 0.5, 1, 2, 4, 6 and 24 h following intravenous administration, and stored at −80 °C until analysis. Aliquots of all biological matrixes were deproteinized with a mixture of methanol/acetonitrile (1:1). The suspension was vortexed, mixed, and centrifuged at 13000 rpm for 10 min. The organic phase was injected into the LC-MS/MS system. PK calculations and statistical comparisons on PK data were performed according to a non-compartmental kinetic model with validated software (Kinetica™ version 5.1, Thermo Electron Corporation, USA).

[2] = test system: leptin-deficient ob/ob mice; assay: Glucose lowering in vivo in diabetic ob/ob mice; settings: 50 mg/kg p.o.; for hypoglycemic effect (in words): 0-24 h
Description: In vivo efficacy of compound PSN-357 and conjugate 6 were studied on leptin-deficient ob/ob mice. Metformin was chosen as a positive control. […] Especially, there was still significant decrease in BG levels by conjugate 6 up to 6 h after administration. The effect might be due to the fact that 6 acts in a sustained release and longer acting manners. It is noteworthy that the findings are highly consistent with the results from in vivo pharmacokinetic studies.
Five- to six-week old obese, diabetic ob/ob mice (male C57BL/6 J) and their lean, nondiabetic male C57BL/6 J littermates were provided by the Model Animal Research Center of Nanjing University, and housed under standard animal care practices with ad libitum access to food and water throughout the procedures. After 1 week acclimation, blood was collected from the retroorbital sinus for plasma glucose determination, and mice were randomized to groups with similar mean ± SD. Mice were then dosed p.o. daily for 4 days with vehicle consisting of DMSO/PEG400/H-β-CD (1:3:6, v/v/v). On day 5, mice were treated p.o. with PSN-357 (50 mg/kg) or conjugate 6 (50 mg/kg) or vehicle, then bled at 0, 1, 2, 3, 6 and 24 h post-dose for plasma glucose determination. Statistical analysis of the hypoglycemic effect was determined by unpaired t test with the ob/ob mice vehicle treated group.

[3] = Stability in simulated gastric fluid (SGF); assay type: in vitro ADME; settings: SGF pH 1.21 with pepsin, 2 μM, 37 °C, 24 h incubation
Description: (§1) All the conjugates were tested for their chemical and metabolic stability in multiple assays, including simulated gastric fluid (SGF), simulated interstinal fluid (SIF), mouse plasma, and mouse liver microsome (MLM).
(§2) For the stability in SGF (Fig. 8) and SIF (Fig. 9), the conjugates could be divided into three groups: (1) stable conjugates 2, 6 and 9. […] The two conjugates were degraded within 6 h and 1 h in SGF and SIF, respectively, with alomost no conjugates at the end of the 24 h incubation in both SGF and SIF; (3) complicated conjugates 3, 4, 5 and 8.
(§3) The simulated gastrointestinal fluids were prepared according to USP specifications. For SGF, NaCl (0.12 g) and pepsin (0.18 g, from porcine stomach mucosa) was dissolved in HCl (0.42 mL) and sufficient H2O was added to make 60 mL. The pH of the test solution was determined as 1.21 by pH meter. For the SIF, KH2PO4 (0.408 g) and pancreatin (0.6 g, from porcine pancreas) was dissolved in H2O (60 mL). The pH of the test solution was determined as 6.79 by pH meter. Each test compound was dissolved in DMSO and diluted to a final concentration of 2 μM in SIF and SGF. The final concentrations of DMSO and CH3CN in the incubation mixture were 0.2% and 0.45%. Aliquots of these solutions were pipetted into glass tubes, and placed in a 37 °C shaking water bath. Test samples at corresponding time point (1, 2, 6, 24 h) were removed at the end of incubation time and immediately mixed with 800 μL of cold acetonitrile containing 500 ng/mL tolbutamide (internal standard). Samples were subjected to centrifuge at 4000 rpm, 4 °C for 20 min. Aliquots 60 μL of supernatant was combined with 120 μL water for LC-MS/MS analysis.

[4] = Stability in simulated intestinal fluid (SIF); assay type: in vitro ADME; settings: SIF pH 6.79 with pancreatin, 2 μM, 37 °C, 24 h incubation
Description: as §1, §2, §3

[5] = male, C57 BL/6, mouse, liver tissue, read-out: MRT0-t, liver
[6] = male, C57 BL/6, mouse, liver, 5 mg/kg, liver tissue, read-out: AUC0-t, liver
[7] = male, C57 BL/6, mouse, plasma, read-out: MRT0-t, plasma
[8] = male, C57 BL/6, mouse, plasma, 5 mg/kg
[9] = male, C57 BL/6, mouse, plasma, 5 mg/kg, plasma, read-out: AUC0-t, plasma

| SMILES | Cmax, liver ([1]; liver tissue) [ng/mL] | MRT last [1, 5] [h] | AUC(0-t) [1, 6] [ng·h/mL] | MRT last [1, 7] [h] | Cmax [1, 8] [ng/mL] | AUC(0-t) [1, 9] [ng·h/mL] | Cmax, plasma ([1]; plasma, 5 mg/kg) [ng/mL] | also measured |
| --- | --- | --- | --- | --- | --- | --- | --- | --- |
| O=C(N[C@@H](Cc1ccc(F)cc1)C(=O)N1CCC(O)CC1)c1cc2cc(Cl)ncc2[nH]1 [PSN-357] | 6677.85 | 4.52 | 9710 | 3.18 | 628 | 965 | 628.35 | IC50 (isolated rat hepatocytes; Hepatocyte, 1 h, isolated rat hepatocytes, 60-min incubation with 0.3 nM glucagon, read-out: IC50 (glycogenolysis inhibition, rat hepatocytes)): 10.7 ± 2.73 µM; AUC0-t, liver ([1]; liver tissue, 5 mg/kg): 9711.94 ng·h/mL; Kp ([1]; male, C57 BL/6, mouse, liver and plasma, read-out: AUCliver/AUCplasma ratio): 10.1; AUC0-t, plasma ([1]; plasma, 5 mg/kg): 965.16 ng·h/mL; time of secondary peak in plasma ([1]; plasma, perhaps due to enterohepatic circulation): 60 min; hypoglycemic effect (in words) ([2]; n = 10): significantly reduc the blood glucose; blood glucose (BG) nadir ([2]; at 1 h, p < 0.005 vs control ob/ob mice): 6.36 ± 1.46 mM |
| C[C@H](CCC(=O)N[C@@H](CC(=O)O)C(=O)OC1CCN(C(=O)[C@H](Cc2ccc(F)cc2)NC(=O)c2cc3cc(Cl)ncc3[nH]2)CC1)[C@H]1CC[C@H]2[C@@H]3[C@H](O)C[C@@H]4C[C@H](O)CC[C@]4(C)[C@H]3C[C@H](O)[C@]12C [Conjugate 6] | 3094.55 | 4.42 | 3980 | 7.52 | 726 | 1520 | 726.2 | IC50 (isolated rat hepatocytes; Rattus norvegicus, Hepatocyte, 1 h, read-out: IC50 (glycogenolysis inhibition, rat hepatocytes), isolated rat hepatocytes, 60-min incubation with 0.3 nM glucagon): 13.4 µM; IC50 (isolated rat hepatocytes; read-out: IC50 (glycogenolysis inhibition, rat hepatocytes), isolated rat hepatocytes, 60-min incubation with 0.3 nM glucagon): 13.4 ± 2.55 µM; stability in SGF (in words) [3]: stable; stability in SIF (in words) [4]: stable up to 24 h; concentration at 240 min ([1]; male, C57 BL/6, mouse, plasma, 240 min, read-out: plasma concentration at 240 min after dosing): 97 ng/mL; hypoglycemic effect (in words) ([2]; n = 10, 50 mg/kg): small but significant hypoglycemic effects; BG level at largest drop ([2]; at 3 h, p < 0.005): around 7.79 mmol/L |
